From publication PMC8537988, “Re-Use of Caco-2 Monolayers in Permeability Assays—Validation Regarding Cell Monolayer Integrity” (Pharmaceutics, 2021)

System: Caco-2 monolayers
Test: Apical to basolateral permeability of LY through Caco-2 monolayers (Transwell, 12-well)
Format: in vitro ADME, human
Conditions: for LY Papp, µ directly from Papp / LY Papp, µ best fit of Normal distribution to Papp: single sampling at 60 min
Procedure: Caco-2 cells culture and monolayers preparation was as described in the reference protocol. Cells were maintained in T75 cm^2 flasks in culture medium (DMEM supplemented with 1% (v/v) NEAA, 10% (v/v) heat-inactivated FBS), in a humidified atmosphere of 5% CO2 at 37 °C. As recommended in the reference protocol, the permeability assays were performed using cells in passages 95–105. The cells were thawed on passage 89 and sub-cultured twice a week at or shortly before 90% confluency by a 1:8 split. To avoid seeding aggregated cells and the formation of multilayers in Transwell™ inserts, the cell clusters were disaggregated into single cells by passing them 3 times through a syringe needle of 23 gauges (BD Falcon) before cell counting. Caco-2 cells were seeded at 2.6 × 10^5 cells/cm^2 on 12-well polycarbonate filter inserts. The culture medium (with 1% (v/v) Pen/Strep) was replaced by fresh medium 6 h following seeding and then every 2–3 days thereafter until transport experiments.
The reference protocol was followed in the permeability assays, with slight modifications as required by the new experimental approach. Manipulation of the cell monolayers was conducted under sterile conditions (in the laminar flow hood or incubator). At the day of the experiments, the culture medium was removed and HBSS (further supplemented with 25 mM HEPES, 0.35 g/L sodium bicarbonate, pH 7.4) pre-warmed to 37 °C was added to the donor (0.5 mL) and receiver (1.5 mL) sides to wash the cell monolayers. The plate containing the inserts was placed (lid-covered) in an incubator without CO2 at 37 °C with an orbital shaker (IKA-Schüttler MTS4, JMGS, Lisboa, Portugal) at 50 rpm for 8 min. The washing step was repeated with new HBSS. The TEER was measured in HBSS at 37 °C using a Millicell® ERS-2 voltmeter equipped with a chopstick electrode pair (Merck, Lisboa, Portugal). A filter insert without cells was included in each set of experiments for correction of the TEER value for the background resistance. The resistance values (Ω cm^2) of the cell monolayers were obtained by subtracting the TEER value from blank inserts and multiplying by the surface area of the insert. All cell monolayers presented TEER values above 200 Ω cm^2. At least one insert of the set was fixed and stained for confocal microscopy analysis (see next section). The remaining ones were used to perform the apical to basolateral permeability assays with the paracellular marker LY. For this, the donor HBSS washing solution was decanted, and the inserts were placed into empty wells of a fresh 12-well plate. The permeability assay was initiated with the addition of 450 µL of the LY solution (20 µM in HBSS at 37 °C) simultaneously to the donor compartments of 3 to 4 insert, from which a 50 µL aliquot was immediately collected and stored for the calculation of the solute concentration in the donor compartment at t = 0. The inserts containing the LY solution were subsequently positioned in a pre-prepared 12-well plate containing HBSS (1.2 mL per well), and the lid-covered plate was placed on the incubator (without CO2, 50 rpm and 37 °C). At the defined sampling times, the plate was positioned into the laminar flow hood and the inserts were transferred into new wells containing fresh HBSS. The high fluorescence quantum yield of LY allows its detection by […], even for the very small amount expected to permeate during short permeation intervals. In this work we used 10, 20, 30, and 60 min or 60 min only as sampling times. At the end of the assay, inserts were transferred to empty wells and 50 µL was taken from the donor compartment for the calculation of the solute mass balance. The remaining solution was decanted, the inserts were placed on new wells containing 1.5 mL of pre-warm HBSS, and 0.5 mL of pre-warmed HBSS was added to each insert for TEER measurements. Some selected monolayers were prepared for microscopy; the remaining were incubated with culture media for re-use, as described below. […]

Lucifer yellow CH di-potassium salt [LY]
LY QA, µ from Log(QA) (day 25, re-use, 4th 30 min (16)): 0.38%
LY QA, µ from Log(QA) (day 25, re-use, all 1st samplings (39)): 0.20%
LY QA, µ from Log(QA) (day 25, single use & re-use, 1st 10 min (22)): 0.19%
LY QA, µ from Log(QA) (day 25, single use & re-use, 1st 60 min (29)): 0.18%
LY QA, µ from Log(QA) (day 25, single use & re-use, 2nd 10 min (22)): 0.25%
LY QA, µ from Log(QA) (day 25, single use & re-use, 3rd 10 min (22)): 0.25%
LY QA, µ from Log(QA) (day 25, single use & re-use, 4th 30 min (22)): 0.36%
LY QA, µ from Log(QA) (day 25, single use & re-use, all 1st samplings (51)): 0.18%
LY QA, µ from Log(QA) (day 25, single use & re-use, all samplings (117)): 0.23%
LY Papp, µ directly from Papp (day 25, single use (6)): 2.1 10^-7 cm/s
LY QA, µ from Log(QA) (day 25, single use, 1st 10 min (6)): 0.12%
LY QA, µ from Log(QA) (day 25, single use, 1st 60 min (6)): 0.18%
LY QA, µ from Log(QA) (day 25, single use, 2nd 10 min (6)): 0.19%
LY QA, µ from Log(QA) (day 25, single use, 3rd 10 min (6)): 0.20%
LY QA, µ from Log(QA) (day 25, single use, 4th 30 min (6)): 0.31%
LY QA, µ from Log(QA) (day 25, single use, all 1st samplings (12)): 0.15%
LY Papp, µ best fit of Normal distribution to Papp (day 28, all (24)): 1.8 10^-7 cm/s
LY Papp, µ directly from Papp (day 28, all (24)): 2.2 10^-7 cm/s
QA (%), µ, LY transported during first sampling interval (day 28, batch 1, passage 95, re-use, one-time sampling (60 min)): 0.33%
QA (%), µ, LY transported during first sampling interval (day 28, batch 1, passage 95, single use, one-time sampling (60 min)): 0.39%
QA (%), µ, LY transported during first sampling interval (day 28, batch 1, passage 98, single use, multi-time sampling (10 min)): 0.09%
QA (%), µ, LY transported during first sampling interval (day 28, batch 1, passage 100, re-use, multi-time sampling (10 min)): 0.09%
QA (%), µ, LY transported during first sampling interval (day 28, batch 1, passage 104, single use, multi-time sampling (10 min)): 0.23%
QA (%), µ, LY transported during first sampling interval (day 28, batch 1, passage 105, re-use, multi-time sampling (10 min)): 0.06%
QA (%), µ, LY transported during first sampling interval (day 28, batch 2, passage 95, re-use, one-time sampling (60 min)): 0.11%
QA (%), µ, LY transported during first sampling interval (day 28, batch 2, passage 98, single use, one-time sampling (60 min)): 0.26%
QA (%), µ, LY transported during first sampling interval (day 28, batch 3, passage 95, re-use, one-time sampling (60 min)): 0.17%
LY Papp, µ best fit of Normal distribution to Papp (day 28, re-use (18)): 1.4 10^-7 cm/s
LY Papp, µ directly from Papp (day 28, re-use (18)): 1.8 10^-7 cm/s
LY QA, µ from Log(QA) (day 28, re-use, 1st 10 min (10)): 0.07%
LY QA, µ from Log(QA) (day 28, re-use, 1st 60 min (18)): 0.16%
LY QA, µ from Log(QA) (day 28, re-use, 2nd 10 min (10)): 0.08%
LY QA, µ from Log(QA) (day 28, re-use, 3rd 10 min (8)): 0.11%
LY QA, µ from Log(QA) (day 28, re-use, 4th 30 min (10)): 0.19%
LY QA, µ from Log(QA) (day 28, re-use, all 1st samplings (28)): 0.12%
LY QA, µ from Log(QA) (day 28, single use & re-use, 1st 10 min (16)): 0.09%
LY QA, µ from Log(QA) (day 28, single use & re-use, 1st 60 min (24)): 0.19%
LY QA, µ from Log(QA) (day 28, single use & re-use, 2nd 10 min (16)): 0.10%
LY QA, µ from Log(QA) (day 28, single use & re-use, 3rd 10 min (14)): 0.13%
LY QA, µ from Log(QA) (day 28, single use & re-use, 4th 30 min (16)): 0.20%
LY QA, µ from Log(QA) (day 28, single use & re-use, all 1st samplings (40)): 0.14%
LY QA, µ from Log(QA) (day 28, single use & re-use, all samplings (86)): 0.14%
LY Papp, µ directly from Papp (day 28, single use (6)): 3.3 10^-7 cm/s
LY QA, µ from Log(QA) (day 28, single use, 1st 10 min (6)): 0.15%
LY QA, µ from Log(QA) (day 28, single use, 1st 60 min (6)): 0.32%
LY QA, µ from Log(QA) (day 28, single use, 2nd 10 min (6)): 0.14%
LY QA, µ from Log(QA) (day 28, single use, 3rd 10 min (6)): 0.15%
LY QA, µ from Log(QA) (day 28, single use, 4th 30 min (6)): 0.24%
LY QA, µ from Log(QA) (day 28, single use, all 1st samplings (12)): 0.22%
